Assay results reported in patent publication US6599892B2, “7-alkylidene cephalosporanic acid derivatives and methods of using the same” (Research Corporation Technologies, Inc., priority 1994, dated 2003).
Structures can show the parent of a compound that is named as a salt.

Assays:
[1] = biological target: Class C β-lactamase of Enterobacter cloacae P99 (Enterobacter cloacae, UniProt P05364); format: biochemical; conditions: for IC50: 10 minute incubation of enzyme and inhibitor, nitrocefin substrate, read-out: IC50 (nM) E. cloacea P99
Protocol: (§1) The IC50 value of each compound was determined as follows. Following a 10 minute incubation of a dilute solution of enzyme (2.56 nm) and inhibitor (<0.64 mM), a […] of this incubation mixture was then further diluted into 1 mL nitrocefin solution, and the rate of hydrolysis was measured during a 1 minute period by monitoring the absorbance of nitrocefin as a function of time.

[2] = biological target: E. cloacae SC 12368 β-lactamase (Enterobacter cloacae, UniProt P05364); format: biochemical; conditions: 10 minute incubation of enzyme and inhibitor; nitrocefin substrate; read-out: IC50 (nM) E. cloacea SC12368
Protocol: as §1

[3] = biological target: E. coli. W3310 β-lactamase (TEM2) (Escherichia coli, UniProt P62593, Q37K); conditions: read-out: IC50 (nM) E. Coli WC3310; 10 minute incubation of enzyme and inhibitor; nitrocefin substrate

| Molecule | IC50 [1] [nM] | IC50 [2] [nM] | IC50 [3] [nM] | fold increase in activity of sulfone over its sulfide 6e [1] [fold] | fold increase in activity over tazobactam [1] [fold] |
| --- | --- | --- | --- | --- | --- |
| CC(=O)OCC1=C(C(=O)O)N2C(=O)/C(=C\c3ccccc3)C2S(=O)(=O)C1 (stereo not shown) [Compound 7c, Sodium salt of 7-[(E)-benzylidene] cephalosporanic acid sulfone] | > 20000 | > 20000 | > 20000 |  |  |
| CC(=O)OCC1=C(C(=O)O)N2C(=O)C(=C(Cl)Cl)C2SC1 (stereo not shown) [Compound 6b, Sodium salt of 7-[dichloromethylene] cephalosporanic acid] | > 20000 | > 20000 | > 20000 |  |  |
| CC(=O)OCC1=C(C(=O)O)N2C(=O)/C(=C/CO)C2S(=O)(=O)C1 (stereo not shown) [Compound 7j, Sodium salt of 7-[(Z)-hydroxymethylmethylene] cephalosporanic acid sulfone] | > 20000 | > 20000 | > 20000 |  |  |
| CC(=O)OCC1=C(C(=O)O)N2C(=O)/C(=C/C(=O)OC(C)(C)C)C2SC1 (stereo not shown) [Compound 6g, Sodium salt of 7-[(Z)-t-butoxycarbonylmethylene] cephlosporanic acid] | 2500 | > 20000 | > 20000 |  |  |
| CC(=O)OCC1=C(C(=O)O)N2C(=O)C(=C(Br)Br)C2S(=O)(=O)C1 (stereo not shown) [Compound 7a, Sodium salt of 7-[dibromomethylene] cephalosporanic acid sulfone] | > 20000 | > 20000 | > 20000 |  |  |
| CC(=O)OCC1=C(C(=O)O)N2C(=O)/C(=C/C(C)(C)C)C2S(=O)(=O)C1 (stereo not shown) [Compound 7m, Sodium salt of 7-[(Z)-t-butylmethylene] cephalosporanic acid sulfone] | > 20000 | > 20000 | > 20000 |  |  |
| CON(C)C(=O)/C=C1/C(=O)N2C(C(=O)O)=C(COC(C)=O)CSC12 (stereo not shown) [Compound 6k, Sodium of salt of 7-[(Z)-N-methoxy-N-methylamino-carbonylmethylene] cephlosporanic acid] | > 20000 | > 20000 | > 20000 |  |  |
| Sodium salt of 7-[(Z)-t-butoxymethylene] cephalosporanic acid sulfone [Compound 7g] | 7800 | 5900 |  |  |  |
| CC(=O)OCC1=C(C(=O)O)N2C(=O)/C(=C\Br)C2S(=O)(=O)C1 (stereo not shown) [Compound 7l, Sodium salt of 7-(E)-[bromomethylene] cephalosporanic acid sulfone] | > 20000 | > 20000 | > 20000 |  |  |
| CC(=O)OCC1=C(C(=O)O)N2C(=O)/C(=C\Br)C2SC1 (stereo not shown) [Compound 6l, Sodium salt of 7-[(E)-bromomethylene] cephalosporanic acid] | > 20000 | > 20000 | > 20000 |  |  |
| CC(=O)OCC1=C(C(=O)O)N2C(=O)C(=C(Cl)Cl)C2S(=O)(=O)C1 (stereo not shown) [Compound 7b, Sodium salt of 7-[dichloromethylene] cephalosporanic acid sulfone] | > 20000 | > 20000 | 8300 |  |  |
| CC(=O)OCC1=C(C(=O)[O-])N2C(=O)/C(=C/c3ccccn3)C2S(=O)(=O)C1.[Na+] (stereo not shown) [Compound 7e, Sodium salt of 7-[(Z)-(2′-pyridyl)methylene] cephalosporanic acid sulfone] | 25 | 25 | 800 | 1300 | 20 |
| CC(=O)OCC1=C(C(=O)O)N2C(=O)C(=C(Br)Br)C2SC1 (stereo not shown) [Compound 6a, Sodium salt of 7-[dibromomethylene] cephalosporanic acid] | > 20000 | > 20000 | > 20000 |  |  |
| CC(=O)OCC1=C(C(=O)O)N2C(=O)/C(=C/C(C)(C)C)C2SC1 (stereo not shown) [Compound 6m, Sodium salt of 7-[(Z)-t-butylmethylene] cephalosporanic acid] | > 20000 | > 20000 | > 20000 |  |  |
| CC(=O)OCC1=C(C(=O)O)N2C(=O)/C(=C/c3ccccc3)C2S(=O)(=O)C1 (stereo not shown) [Compound 7d, Sodium salt of 7-[(Z)-benzylidene] cephalosporanic acid sulfone] | 6250 | 6800 | > 20000 |  |  |
| CC(=O)OCC1=C(C(=O)O)N2C(=O)/C(=C/c3ccccn3)C2SC1 (stereo not shown) [Compound 6e, Sodium salt of ^7-[(Z)-(2′-pyridyl)methylene] cephalosporanic acid] | > 20000 | > 20000 | > 20000 |  |  |
| CC(=O)/C=C1/C(=O)N2C(C(=O)O)=C(COC(C)=O)CSC12 (stereo not shown) [Compound 6h, Sodium salt of 7-[(Z)-acetylmethylene] cephlosporanic acid] | > 20000 | > 20000 | > 20000 |  |  |
